Test results published in US12564194B2, “Herbicide mixture, herbicidal composition, method and kit for controlling undesired vegetation” (Adama Agan Ltd., priority 2020, dated 2026).

How the values were obtained:
Type in all cases: in vivo
Aegilops tauschii [1] = experiment: Soil sealing treatment pot experiment for controlling Aegilops tauschii, more mixing ratios (Example 3)
Source text: (§1) Referring to an article of Colby, S. R. i.e., Calculation of the synergistic and antagonistic response of herbicide combinations. Weeds 1967, 15, pp. 20-22 (which is incorporated herein in its entirety by reference), the theoretical value E0 of a given mixture of three active ingredients may be predicted according to the following equation, then evaluating whether there is synergy.
(§2) [formula] • wherein: • E0 is the theoretical fresh weight survival rate for the mixture of pyroxasulfone, chlorotoluron and […]; • X is the measured fresh weight survival rate for pyroxasulfone used alone in the same dosage as that in the mixture; • Y is the measured fresh weight survival rate for chlorotoluron used alone in the same dosage as that in the mixture; • Z is the measured fresh weight survival rate for mesosulfuron-methyl used alone in the same dosage as that in the mixture. • E is the measured fresh weight survival rate for the mixture of pyroxasulfone, chlorotoluron and mesosulfuron-methyl. • E0-E value is calculated to evaluate the combined effect of pyroxasulfone, chlorotoluron and mesosulfuron-methyl on the selected weeds.
(§3) In this example, the herbicidal activity of a mixture of pyroxasulfone, chlorotoluron and mesosulfuron-methyl for soil sealing treatment to control Aegilops tauschii is investigated by a pot experiment method under the conditions of a glass greenhouse. This example is carried out in accordance with “NY/T 1155.4-2006 Guidelines for Indoor Bioassay Tests of Pesticides, Herbicides Part 4: Activity Determination Tests, Stem and Leaf Spray Method”.
(§4) • Pyroxasulfone: pyroxasulfone (850 g/Kg, WG) from Adama Agan LTD. • Chlorotoluron: chlorotoluron (90 wt %, WG) from Adama Agan LTD. • Mesosulfuron-methyl: Sigma (30 g/L, OD) from Bayer AG. • Test location: Greenhouse of Institute of Plant Protection, Shandong Academy of Agricultural Sciences • Cultivation of test materials: The test soil is formed by mixing the 20 cm layer loam on the ground surface and the culture medium in a ratio of 3:1 as cultivation soil.
(§5) The test weeds are cultivated in a glass greenhouse at a temperature of 15-30° C. and natural light. A certain amount of Aegilops tauschil seeds are sown in a plastic pot with a diameter of 9 cm, covering with 1-2 mm soil, and putting them in an enamel dish filled with water. The bottom infiltration method is used to water them, waiting for the water to seep to the soil surface, and then transferring to a glass greenhouse for cultivation. The agents are applied on the second day after sowing Aegilops tauschii seeds.
(§6) For each active ingredient, the multiple dilution method is used to obtain the other five lower dosages from the highest dosage. A certain amount of agent is measured by pipette or balance, adding it directly to the water, and then diluting it to the required dosage by the multiple dilution method.
(§7) Spraying treatment: ASS-4 automatic control spraying system with a fan-shaped nozzle is used indoors to spray agent, the running speed is adjusted based on nozzle pressure, flow rate, etc. to spray 50 mL of chemical solution on the actual spray area of 1.1 m^2 (equivalent to 30 liters per mu), arranging the plastic pots to be processed on the spraying table evenly, and spraying evenly. The spraying pressure is 0.35 MPa, and the flow rate of the fan-shaped nozzle is 800 mL/min, spraying in order from low dosage to high dosage. Each treatment is repeated 3 times. After spraying, let it dry for one day, placing it in a glass greenhouse, and watering it regularly to keep moist.
Weed investigation method and time: after applying the agent, the symptoms of weed damage (such as growth inhibition, chlorosis, deformity, etc.) are recorded in detail. After 35 days, the fresh weight of aerial part of the weeds in each treatment is weighed, and the measured fresh weight inhibition rate and the measured fresh weight survival rate for each treatment are calculated according to the following equations: […]

Aegilops tauschii [2] = experiment: Soil sealing treatment pot experiment for controlling Aegilops tauschii (Example 1); conditions: for control effect on Aegilops tauschii: single active ingredient, summary of Table 2
Source text: as §1, §2, §3, §4, §5, §6, §7
Application time and frequency: the experiment is conducted on the second day after sowing Aegilops tauschii seeds, and the soil is evenly sprayed. The application time is Mar. 10, 2020, with one application.
Weed investigation method and time: after applying the agent, the symptoms of weed damage (such as growth inhibition, chlorosis, deformity, etc.) are recorded in detail. […]

Lolium multiflorum Lamk = experiment: Soil sealing treatment pot experiment for controlling Lolium multiflorum Lamk (Example 2); conditions: 35 days

## Cc1ccc(NC(=O)N(C)C)cc1Cl [chlorotoluron, 3-(3-chloro-4-methylphenyl)-N,N-dimethylurea]
Aegilops tauschii [1]; 562.5 gai/ha
  Actual fresh weight survival rate (%) - E: 80.2%
Aegilops tauschii [1]; 1125 gai/ha
  Actual fresh weight survival rate (%) - E: 72.4%
Aegilops tauschii [1]; 2250 gai/ha
  Actual fresh weight survival rate (%) - E: 52.6%
Aegilops tauschii [1]; Aegilops tauschii, soil, 562.5 gai/ha, read-out: Actual fresh weight inhibition rate %
  inhibition at 562.5 g/ha: 19.8%
Aegilops tauschii [1]; Aegilops tauschii, soil, 1125 gai/ha, read-out: Actual fresh weight inhibition rate %
  inhibition at 1125 g/ha: 27.6%
Aegilops tauschii [1]; Aegilops tauschii, soil, 2250 gai/ha, read-out: Actual fresh weight inhibition rate %
  inhibition at 2250 g/ha: 47.4%
Aegilops tauschii [2]; 70.3125 gai/ha, 35 days
  Measured fresh weight survival rate (%) - E: 102.6%
Aegilops tauschii [2]; 140.625 gai/ha, 35 days
  Measured fresh weight survival rate (%) - E: 101.3%
Aegilops tauschii [2]; 281.25 gai/ha, 35 days
  Measured fresh weight survival rate (%) - E: 92.21%
Aegilops tauschii [2]; 562.5 gai/ha, 35 days
  Measured fresh weight survival rate (%) - E: 81.82%
Aegilops tauschii [2]; 1125 gai/ha, 35 days
  Measured fresh weight survival rate (%) - E: 72.73%
Aegilops tauschii [2]; 2250 gai/ha, 35 days
  Measured fresh weight survival rate (%) - E: 36.36%
Aegilops tauschii [2]; Aegilops tauschii, soil, 840 h, 70.3125 gai/ha, 35 days, read-out: Measured fresh weight inhibition rate (%)
  inhibition at 70.3125 g/ha: -2.6%
Aegilops tauschii [2]; Aegilops tauschii, soil, 840 h, 140.625 gai/ha, 35 days, read-out: Measured fresh weight inhibition rate (%)
  inhibition at 140.625 g/ha: -1.3%
Aegilops tauschii [2]; Aegilops tauschii, soil, 840 h, 281.25 gai/ha, 35 days, read-out: Measured fresh weight inhibition rate (%)
  inhibition at 281.25 g/ha: 7.79%
Aegilops tauschii [2]; Aegilops tauschii, soil, 840 h, 562.5 gai/ha, 35 days, read-out: Measured fresh weight inhibition rate (%)
  inhibition at 562.5 g/ha: 18.2%
Aegilops tauschii [2]; Aegilops tauschii, soil, 840 h, 1125 gai/ha, 35 days, read-out: Measured fresh weight inhibition rate (%)
  inhibition at 1125 g/ha: 27.3%
Aegilops tauschii [2]; Aegilops tauschii, soil, 840 h, 2250 gai/ha, 35 days, read-out: Measured fresh weight inhibition rate (%)
  inhibition at 2250 g/ha: 63.6%
Aegilops tauschii [2]
  control effect on Aegilops tauschii: certain effect
Lolium multiflorum Lamk; 70.3125 gai/ha
  Measured fresh weight survival rate (%) - E: 96.7%
Lolium multiflorum Lamk; 140.625 gai/ha
  Measured fresh weight survival rate (%) - E: 91.21%
Lolium multiflorum Lamk; 281.25 gai/ha
  Measured fresh weight survival rate (%) - E: 87.91%
Lolium multiflorum Lamk; 562.5 gai/ha
  Measured fresh weight survival rate (%) - E: 83.52%
Lolium multiflorum Lamk; 1125 gai/ha
  Measured fresh weight survival rate (%) - E: 25.27%
Lolium multiflorum Lamk; 2250 gai/ha
  Measured fresh weight survival rate (%) - E: 0%
Lolium multiflorum Lamk; Lolium multiflorum, soil, 840 h, 70.3125 gai/ha, read-out: Measured fresh weight inhibition rate (%)
  inhibition at 70.3125 g/ha: 3.3%
Lolium multiflorum Lamk; Lolium multiflorum, soil, 840 h, 140.625 gai/ha, read-out: Measured fresh weight inhibition rate (%)
  inhibition at 140.625 g/ha: 8.79%
Lolium multiflorum Lamk; Lolium multiflorum, soil, 840 h, 281.25 gai/ha, read-out: Measured fresh weight inhibition rate (%)
  inhibition at 281.25 g/ha: 12.1%
Lolium multiflorum Lamk; Lolium multiflorum, soil, 840 h, 562.5 gai/ha, read-out: Measured fresh weight inhibition rate (%)
  inhibition at 562.5 g/ha: 16.5%
Lolium multiflorum Lamk; Lolium multiflorum, soil, 840 h, 1125 gai/ha, read-out: Measured fresh weight inhibition rate (%)
  inhibition at 1125 g/ha: 74.7%
Lolium multiflorum Lamk; Lolium multiflorum, soil, 840 h, 2250 gai/ha, read-out: Measured fresh weight inhibition rate (%)
  inhibition at 2250 g/ha: 100%

## COC(=O)c1ccc(CNS(C)(=O)=O)cc1S(=O)(=O)NC(=O)Nc1nc(OC)cc(OC)n1 [mesosulfuron-methyl, 2-[3-(4,6-dimethoxypyrimidin-2-yl)ureasulfonyl]-4-methylsulfonamide methyl benzoate]
Aegilops tauschii [1]; 5 gai/ha
  Actual fresh weight survival rate (%) - E: 93.1%
Aegilops tauschii [1]; 10 gai/ha
  Actual fresh weight survival rate (%) - E: 88.8%
Aegilops tauschii [1]; 20 gai/ha
  Actual fresh weight survival rate (%) - E: 76.7%
Aegilops tauschii [1]; Aegilops tauschii, soil, 5 gai/ha, read-out: Actual fresh weight inhibition rate %
  inhibition at 5 g/ha: 6.9%
Aegilops tauschii [1]; Aegilops tauschii, soil, 10 gai/ha, read-out: Actual fresh weight inhibition rate %
  inhibition at 10 g/ha: 11.2%
Aegilops tauschii [1]; Aegilops tauschii, soil, 20 gai/ha, read-out: Actual fresh weight inhibition rate %
  inhibition at 20 g/ha: 23.3%
Aegilops tauschii [2]; 1.25 gai/ha, 35 days
  Measured fresh weight survival rate (%) - E: 96.1%
Aegilops tauschii [2]; 2.5 gai/ha, 35 days
  Measured fresh weight survival rate (%) - E: 100%
Aegilops tauschii [2]; 5 gai/ha, 35 days
  Measured fresh weight survival rate (%) - E: 94.81%
Aegilops tauschii [2]; 10 gai/ha, 35 days
  Measured fresh weight survival rate (%) - E: 83.12%
Aegilops tauschii [2]; 20 gai/ha, 35 days
  Measured fresh weight survival rate (%) - E: 71.43%
Aegilops tauschii [2]; 40 gai/ha, 35 days
  Measured fresh weight survival rate (%) - E: 88.31%
Aegilops tauschii [2]; Aegilops tauschii, soil, 840 h, 1.25 gai/ha, 35 days, read-out: Measured fresh weight inhibition rate (%)
  inhibition at 1.25 g/ha: 3.9%
Aegilops tauschii [2]; Aegilops tauschii, soil, 840 h, 2.5 gai/ha, 35 days, read-out: Measured fresh weight inhibition rate (%)
  inhibition at 2.5 g/ha: 0%
Aegilops tauschii [2]; Aegilops tauschii, soil, 840 h, 5 gai/ha, 35 days, read-out: Measured fresh weight inhibition rate (%)
  inhibition at 5 g/ha: 5.19%
Aegilops tauschii [2]; Aegilops tauschii, soil, 840 h, 10 gai/ha, 35 days, read-out: Measured fresh weight inhibition rate (%)
  inhibition at 10 g/ha: 16.9%
Aegilops tauschii [2]; Aegilops tauschii, soil, 840 h, 20 gai/ha, 35 days, read-out: Measured fresh weight inhibition rate (%)
  inhibition at 20 g/ha: 28.6%
Aegilops tauschii [2]; Aegilops tauschii, soil, 840 h, 40 gai/ha, 35 days, read-out: Measured fresh weight inhibition rate (%)
  inhibition at 40 g/ha: 11.7%
Aegilops tauschii [2]
  control effect on Aegilops tauschii: substantively ineffective
Lolium multiflorum Lamk; 1.25 gai/ha
  Measured fresh weight survival rate (%) - E: 96.7%
Lolium multiflorum Lamk; 2.5 gai/ha
  Measured fresh weight survival rate (%) - E: 94.51%
Lolium multiflorum Lamk; 5 gai/ha
  Measured fresh weight survival rate (%) - E: 83.52%
Lolium multiflorum Lamk; 10 gai/ha
  Measured fresh weight survival rate (%) - E: 60.44%
Lolium multiflorum Lamk; 20 gai/ha
  Measured fresh weight survival rate (%) - E: 39.56%
Lolium multiflorum Lamk; 40 gai/ha
  Measured fresh weight survival rate (%) - E: 6.59%
Lolium multiflorum Lamk; Lolium multiflorum, soil, 840 h, 1.25 gai/ha, read-out: Measured fresh weight inhibition rate (%)
  inhibition at 1.25 g/ha: 3.3%
Lolium multiflorum Lamk; Lolium multiflorum, soil, 840 h, 2.5 gai/ha, read-out: Measured fresh weight inhibition rate (%)
  inhibition at 2.5 g/ha: 5.49%
Lolium multiflorum Lamk; Lolium multiflorum, soil, 840 h, 5 gai/ha, read-out: Measured fresh weight inhibition rate (%)
  inhibition at 5 g/ha: 16.5%
Lolium multiflorum Lamk; Lolium multiflorum, soil, 840 h, 10 gai/ha, read-out: Measured fresh weight inhibition rate (%)
  inhibition at 10 g/ha: 39.6%
Lolium multiflorum Lamk; Lolium multiflorum, soil, 840 h, 20 gai/ha, read-out: Measured fresh weight inhibition rate (%)
  inhibition at 20 g/ha: 60.4%
Lolium multiflorum Lamk; Lolium multiflorum, soil, 840 h, 40 gai/ha, read-out: Measured fresh weight inhibition rate (%)
  inhibition at 40 g/ha: 93.4%
